Test [1] deals with Epstein Barr Virus (EBV). In words: Inhibition of lytic EBV replication in Akata cells, real-time PCR of BALF5. As to conditions: real-time PCR at 48 hours, NA = Not active. It counts as cell-based. The protocol: Inhibition of lytic Epstein Barr Virus (EBV) replication: Akata cells (0.5×10^6/well of 24-well plate) latently infected with EBV were induced with 100 μg/ml of goat antihuman IgG (Sigma). Compounds and GCV control were added to triplicate wells immediately after the addition of human IgG. Cells were collected 48 hours after lytic induction for DNA quantification. Cellular DNA was purified using Wizard SV Genomic Kit (Promega, Madison, WI). The effect of the compounds on lytic induction of EBV was analyzed by real-time PCR of the EBV DNA polymerase gene, BALF5^38.
(§1) Inhibition of other herpesviruses: Inhibition of herpes simplex 1 and 2 (HSV1, HSV2), Epstein Barr virus (EBV) and mouse CMV (MCMV) was tested with the five compounds. Plaque reductions assays were used for HSV1, HSV2 and MCMV. Inhibition of lytic EBV replication was measured by real-time PCR in AKATA cells following IgG induction. Only MLS8554 was active against HSV1, HSV2 and MCMV (Table 2).

Test [2] relates to HCMV TB40. In words: Plaque reduction assay, HCMV TB40 in HFFs. The conditions noted are these: 10 days. The format is cell-based, human cytomegalovirus. The protocol:
(§2) Plaque reduction assay: HFFs were seeded into 12-well plates (2×10^5 cells/well) and infected with HCMV TB40 at approximately 100 plaques/well. After 90 min, media were aspirated, and DMEM containing 0.5% carboxymethyl-cellulose (CMC), 4% fetal bovine serum (FBS), and drugs were added into duplicate wells. Following incubation at 37° C. for 10-12 days the overlay was removed, and plaques were counted after crystal violet staining. For HSV1 and HSV2 replication in Vero cells, the adsorption time was 60 min and plaques were counted after 36 h. Plaque assays in MEFs were completed after 3 days.
Viral protein expression was measured by Western blot.

The subject of test [3] is HCMV Towne DNA. In words: Viral DNA by US17 real-time PCR in cells and supernatants. The format is cell-based, human cytomegalovirus. The conditions noted are these: Towne MOI=0.1; NFU1827 5 μM, MLS8554 2 μM, MLS8091 1.5 μM, 2955 3 μM, GCV 5 μM. From the text: DNA isolation and quantitative real-time (qPCR): Total DNA was isolated from non-infected control, and HCMV-infected HFFs using Wizard SV genomic DNA isolation kit (Promega, Madison, WI). To determine viral load in the supernatant, total DNA was isolated from supernatants using automated DNA extraction on the BioRobot M48 instrument (Qiagen, Valencia, CA). A US17 real-time PCR assay which targets 151-bp from the highly conserved US17 region of the CMV genome was used^39. The primers and probe for US17 are: […]

Test [4] has as its system HCMV Towne. Put plainly: Add-on and removal assays, luciferase at 72 hpi. It counts as cell-based, human cytomegalovirus. The conditions noted are these: for stage of maximal activity during HCMV replication, in words: add-on and removal assays; for add-on assay result, in words: compound added at times after infection; for add-on assay result, in words / removal assay result, in words: luciferase 72 hpi; for removal assay result, in words: compound removed at times after infection. The method, then:
Add-on and removal assays: These assays were performed to identify at which stage during HCMV replication the compounds had maximal activity. In the add-on group, compounds were added to infected HFFs at 0, 6, 24, and 48 hpi, and luciferase activity was measured at 72 hpi. In the removal group, compounds were added immediately after virus infection and were subsequently removed after 0, 6, 24, and 48 h; luciferase was measured at 72 hpi.
Timing of HCMV inhibition: Add-on and removal assays were performed. Compounds were added or removed at 0, 6, 12, 24, 36 and 48 hpi, and luciferase activity was measured at 72 hpi.

For test [5], the target named is pp28-luciferase Towne HCMV. In words: Drug combination with GCV, pp28-luciferase Towne, Bliss model. It counts as cell-based, human cytomegalovirus. As to conditions: combination experiment with GCV, pp28-luciferase; read-out: EC50 (μM) of Compound 2. The protocol:
Drug combination and analysis: These experiments were performed as previously reported^40. The combination of GCV and each compound was tested using the pp28-luciferase. Briefly, 2×10^6 HFFs/plate were seeded in 96-well plates and infected with the pp28-luciferase Towne HCMV strain (MOI=1). First, a dose response curve was generated for each drug individually to determine its EC50. Then, drugs were combined at twice their EC50, diluted in DMEM with 4% FBS, followed by serial dilution and added together after infection. Luciferase activity of the combination and each drug individually was quantified at 72 hpi. The combination of letermovir and each of the new compounds was tested by the plaque assay using TB40. The same principle applied in this assay for the drug combination effect, and plaques were counted at 8 dpi. The Bliss model was used to calculate the effect of each drug combination on pp28-luciferase activity and plaque reduction. In this model, drug combination represents the product of two probabilistically independent events as described in the following equation^41.
[formula] Where D is the drug concentration, m is the slope, and EC50 is the effective concentration resulting in 50% virus inhibition. The combined effect of two inhibitors (Fu, fractional unaffected) is computed as the product of individual effects of the two inhibitors, Fu1 and Fu2. If the ratio of observed fold inhibition divided by the expected fold inhibition is greater than 1, the compounds are synergistic. If the ratio is less than 1, the combination is considered antagonistic, and if it equals to 1 the combination is additive.
Pattern of drug combination with GCV and letermovir: The effect of each compound alone or in combination with GCV or letermovir was tested in HCMV-infected HFFs. […] For letermovir and its combination with each of the five compounds the EC50 was determined based on plaque assay. […] All other combinations and Bliss coefficients were measured by pp28- luciferase.

The test system of test [6] is HSV1 clinical isolate. Put plainly: Plaque reduction assay, HSV1 in Vero cells. The format is cell-based, Human Herpesvirus 1. As to conditions: plaque reduction.
Excerpt: Viruses and antiviral assays: A recombinant pp28-luciferase Towne HCMV strain expressing luciferase under the control of the UL99 (pp28) late promoter was reported to provide a highly-sensitive and reproducible reporter for drug screening^20. A GCV-resistant HCMV pp28-luciferase that contains a C607Y mutation in UL97 was reported^37. The HCMV TB40 strain was obtained from ATCC (VR-1578). Clinical isolates of Human Herpesvirus 1 and 2 (HSV1, HSV2) were collected from the Johns Hopkins Microbiology laboratory without identifiers that could link them to a specific patient. Mouse CMV (MCMV) Smith strain (ATCC VR-1399) was used for infection of MEFs.
as §2, §1

Broadly, the EC50 is the midpoint of the concentration-response curve. Compound `Nc1c(S(=O)(=O)c2cccs2)c2nc3ccccc3nc2n1Cc1ccccc1` [MLS8091] returned an EC50 in test [1] (IgG induction) of more than 10000 nM. Also, in test [2], it took 330 nM to reach a half-maximal effect (EC50). Also, in test [3], the “viral DNA replication in cells, in words” value is given as “higher than that achieved with GCV” and the “viral DNA yield in supernatant, in words” value was “not significantly different from GCV”. Also, in test [4], the “stage of maximal activity during HCMV replication, in words” value (“stage” below) is recorded as “early-late stage”; the “add-on assay result, in words” value is reported as “overlapped with that of GCV”; the “removal assay result, in words” value is recorded as “showed earlier effects”. Also, in test [5], the EC50 stood at 0.57 ± 0.07 µM. Further, the “activity against HSV1, in words” value in test [6] is recorded as “no activity”.
In the case of `CCN1CCN(CCCNC(=O)c2ccc3c(c2)sc2nc(-c4ccc(OC)cc4)cn23)CC1` [NFU1827, N-[3-(4-ethylpiperazin-1-yl)propyl]-4-(4-methoxyphenyl)-7-thia-2,5-diazatricyclo [6.4.0.02,6] dodeca-1(8),3,5,9,11-pentaene-10-carboxamide], the EC50 in test [1] (human gammaherpesvirus 4, IgG induction) was found to be 1920 ± 100 nM. Besides, in test [2] (Human betaherpesvirus 5, 240 h), it took 1210 ± 100 nM to reach a half-maximal effect (EC50). Also, in test [3], the “viral DNA replication in cells, in words” value is listed as “significantly reduced” and the “viral DNA yield in supernatant, in words” value is “significantly reduced”. Moreover, in test [4], the “stage” value is recorded as “immediate early-early”; the “add-on assay result, in words” value is listed as “lost its ability to inhibit HCMV”; the “removal assay result, in words” value is reported as “significant HCMV suppression”. Moreover, in test [6], the “activity against HSV1, in words” value is on record as “no activity”.
`CCc1ccc(NC(=O)[C@H](Cc2c[nH]c3ccccc23)NC(=O)[C@@H]2Cc3ccccc3CN2)cc1` [MLS8554] displayed an EC50 in test [2] of 340 nM. Moreover, in test [3], the “viral DNA replication in cells, in words” value is recorded as “reduced” and the “viral DNA yield in supernatant, in words” value was “reduced”. Further, in test [4], the “stage” value is given as “immediate early-early”; the “add-on assay result, in words” value is “activity was significantly reduced”; the “removal assay result, in words” value was “near complete”. For the same compound, in test [5], the EC50 worked out at 0.55 ± 0.02 µM. Also, the “activity against HSV1, in words” value in test [6] is “active”. Also, the EC50 in test [6] (Vero cells, NA = Not active, read-out: EC50—HSV1-C1) stood at 1780 ± 200 nM.
For `CC(C)NC(=O)C1CCN(C(=O)c2cc3sccc3n2Cc2ccc(Cl)cc2)CC1` [NCGC2955, 1-(4-(4-chlorobenzyl)-4H-thieno[3,2-b]pyrrole-5-carbonyl)-N-isopropylpiperidine-4-carboxamide], a half-maximal response in test [2] (Human betaherpesvirus 5, 240 h) (EC50) required 1180 ± 200 nM. Also, in test [3], the “viral DNA replication in cells, in words” value is recorded as “modest” and the “viral DNA yield in supernatant, in words” value is listed as “modest”. Besides, in test [4], the “stage” value is on record as “early-late stage”; the “add-on assay result, in words” value was “overlapped with GCV”; the “removal assay result, in words” value was “longer activity than GCV”.

For the origin of these results see patent publication US12691114B2, “Compositions for inhibition of herpesviruses” (The Medical College of Wisconsin, Inc., priority 2020, dated 2026).
